Experiment in all cases: relative viability (nuclei count vs DMSO), 5 days (fraction); higher = more cells survive
Compound in the test “MK-8033 + Bortezomib”: Cn1cc(-c2cnc3ccc4ccc(CS(=O)(=O)NCc5ccccn5)cc4c(=O)c3c2)cn1 [MK-8033] + CC(C)C[C@H](NC(=O)[C@H](Cc1ccccc1)NC(=O)c1cnccn1)B(O)O [Bortezomib] (partner 0.002 µM)
The gist of the method: (§1)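 Nuclei were stained with Hoechst during a one-step fixation (final 0.05% Triton X-100, 1% formaldehyde, 1 ug/ml Hoechst) carried out 5 days after dosing, then counted on 4× images. The cells, lung cancer lines in 1536-well plates, had been dosed by pin tool the day after seeding with one drug alone or a fixed anchor-drug dose plus five library-drug doses (not always all listed) in √10 steps. Relative viability is the nuclei count in treated wells divided by that in vehicle wells, and each value is the median of duplicate plates.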

Compound in the test “MK-8033 + Crizotinib”: Cn1cc(-c2cnc3ccc4ccc(CS(=O)(=O)NCc5ccccn5)cc4c(=O)c3c2)cn1 [MK-8033] + C[C@@H](Oc1cc(-c2cnn(C3CCNCC3)c2)cnc1N)c1c(Cl)ccc(F)c1Cl [Crizotinib] (partner 1 µM)
The gist of the method: as §1

Compound in the test “MK-8033 + Dasatinib”: Cn1cc(-c2cnc3ccc4ccc(CS(=O)(=O)NCc5ccccn5)cc4c(=O)c3c2)cn1 [MK-8033] + Cc1nc(Nc2ncc(C(=O)Nc3c(C)cccc3Cl)s2)cc(N2CCN(CCO)CC2)n1 [Dasatinib] (partner 0.075 µM)
The method, boiled down:
as §1

Compound in the test “RU-SKI 43 + Trametinib”: CC[C@@H](C)CNCC(=O)N1CCC2=C([C@@H]1COC3=CC=CC(=C3)C)C=CS2 [RU-SKI 43] + CC(=O)Nc1cccc(-n2c(=O)n(C3CC3)c(=O)c3c(Nc4ccc(I)cc4F)n(C)c(=O)c(C)c32)c1 [Trametinib] (partner 0.02 µM)
The gist of the method:
as §1

With UMC-11, the relative viability with MK-8033 + Bortezomib (first compound 0.02 µM) came out at 0.673; with MK-8033 + Bortezomib (first compound 0.06325 µM), 0.664; with MK-8033 + Bortezomib (first compound 0.2 µM), 0.831; in the test with MK-8033 + Bortezomib (first compound 0.6325 µM), 0.665; with MK-8033 + Bortezomib (first compound 2 µM), 0.664; with MK-8033 + Crizotinib (first compound 0.02 µM) it was 0.737. The relative viability with MK-8033 + Crizotinib (first compound 0.06325 µM) is 0.459; in the test with MK-8033 + Crizotinib (first compound 0.2 µM), 0.734; with MK-8033 + Crizotinib (first compound 0.6325 µM), 0.678; with MK-8033 + Crizotinib (first compound 2 µM) it was 0.697; with MK-8033 + Dasatinib (first compound 0.02 µM), 0.448; with MK-8033 + Dasatinib (first compound 0.06325 µM) it was 0.378. Further, the relative viability stood at 0.421 with MK-8033 + Dasatinib (first compound 0.2 µM); 0.413 with MK-8033 + Dasatinib (first compound 2 µM); 0.691 in the test with RU-SKI 43 + Trametinib (first compound 0.1 µM); 0.693 with RU-SKI 43 + Trametinib (first compound 0.3162 µM); 0.742 in the test with RU-SKI 43 + Trametinib (first compound 1 µM); 0.745 with RU-SKI 43 + Trametinib (first compound 3.162 µM). In the test with RU-SKI 43 + Trametinib (first compound 10 µM), the relative viability stood at 0.401.

Source of the values: the supplement of paper PMC10307832.
